We go through 54 substances from article PMC8769072, “Proteome‐scale mapping of binding sites in the unstructured regions of the human proteome” (Molecular Systems Biology, 2022).

The subject of this test is immobilized GST-tagged bait protein domains. As to the kind of experiment: ProP-PD phage selections (HD2 P8, sublibraries, HD2 P3, HD1 P8) with NGS and confidence level. It counts as binding, human. To be noted: for HD confidence / HD mean counts / HD count proportions: HD1 P8 library.
[1] abbreviates: HD2 library, bait CALM1_EF-hand__P0DP23_2_149, benchmark motif instance, in_library_check FALSE, in_library_coverage 0.
The mark [2] stands for this setting: HD2 library, bait TNKS_TANK-peptide-bind__O95271_174_649, known motif instance of the benchmarking set found (TRUE) or not found (FALSE) among selected peptides.
[3] abbreviates: bait CALM1_EF-hand__P0DP23_2_149, library HD2, benchmarking set of validated motif instances, TRUE = motif instance recovered in the ProP-PD selection.
Setting [4] is: bait MAP1LC3A_ATG8 (Q9H492 2-121), HD2 library, benchmark motif instance recovered in the ProP-PD selection (TRUE/FALSE).
Setting [5] is: bait PABP-B_PABP__P11940_544_623, HD2 library, whether the validated benchmark motif instance was recovered in the ProP-PD selection (TRUE/FALSE).
Setting [6] is: bait PABP-B_PABP__P11940_544_623, HD2 library, confidence level (1-4) of best matching selected peptide.
[7] abbreviates: bait PABP-B_PABP__P11940_544_623, HD2 library, specificity score of best matching selected peptide.
Where [8] appears, read: library HD2, bait EPS15_EH__P42566_121_215, whether the validated benchmark motif instance was recovered in the ProP-PD selection (TRUE/FALSE).
Setting [9] is: bait CRK_SH3_1_P46108_124_198, library HD2, benchmarking set of validated motif instances, TRUE = motif instance recovered in the ProP-PD selection.
[10] abbreviates: HD2 library, bait TLN1_PTB__Q9Y490_309_401, known motif instance of the benchmarking set found (TRUE) or not found (FALSE) among selected peptides.
The mark [11] stands for this setting: bait MAP1LC3B_ATG8 (Q9GZQ8 2-119), HD2 library, benchmark motif instance recovered in the ProP-PD selection (TRUE/FALSE).

Consider RCVNSRQIRPPPDGSDCTSDLA [RAD54L 690-697], for which, for the setting “HD2 library, bait TNKS_TANK-peptide-bind__O95271_174_649, benchmark motif instance, in_library_check FALSE, in_library_coverage 0”, the motif_found result is recorded as “FALSE”.
In the case of RDAEAHPWLSDYDDLTSAT, for the setting “bait PEX14_Pex14__O75381_16_84, HD2 library, whether the validated benchmark motif instance was recovered in the ProP-PD selection (TRUE/FALSE)”, the motif_found entry is on record as “FALSE”.
In the case of “REMEEKSALIIQKHWRGYRERKNFHQQRQSL [IQCB1 391-407]”, the motif_found entry under setting [1] is given as “FALSE”.
In the case of RGRGDGQE, the motif_found result under setting [2] is reported as “FALSE”.
In the case of RHLPPPLPSKTPPPPP, the p3_HD2 confidence (bait CRK_SH3_1_P46108_124_198, HD2 P3 library, confidence level (4 = High, 2-3 = Medium, 1 = Low)) came out at 3. Under “bait CRK_SH3_1_P46108_124_198, HD2 P3 library, mean NGS counts over replicate selections”, this substance came in with a p3_HD2 mean counts of 27.0. For the setting “bait CRK_SH3_1_P46108_124_198, HD2 P3 library, mean proportion of NGS counts”, this substance showed a p3_HD2 count proportions of 0.0009618.
On to “RKKWKQSVRLISLCQRLSR,KWKQSVRLISLCQRLS [DAPK1]”, for which, under setting [3], the motif_found entry is on record as “FALSE”.
Take RKNTKSMNFDNPVYRKTTEEED [LRP8 860-867]: where the note is “HD2 library, bait TLN1_PTB__Q9Y490_309_401, benchmark motif instance, in_library_check FALSE, in_library_coverage 0”, the motif_found result is recorded as “FALSE”.
For “RKQEEVSAIIIQRAYRRYLLKQKVKKVSSIY [SCN2A 1909-1925]”, under setting [1], the motif_found result was “FALSE”.
For the substance “RKQYRKVLYCVVIIQKNYRAFLLRRRFLHLKKAA [MYO10 766-785]”, the motif_found entry under setting [1] was “FALSE”.
For the substance RKRAKV, the motif_found entry (bait KPNA4_Arm (O00629 68-487), HD2 library, benchmark motif instance recovered in the ProP-PD selection (TRUE/FALSE)) was “FALSE”.
For the substance RKTLVSMPPLPGLDLKGSESPE [RFX5], for the setting “bait ANKRA2_Ank__Q9H9E1_142_313, library HD2, benchmarking set of validated motif instances, TRUE = motif instance recovered in the ProP-PD selection”, the motif_found result was “FALSE”.
With RLRHALWPSLPDLHRVLGQYLRDT, the motif_found result (library HD2, bait ANKRA2_Ank__Q9H9E1_142_313, motif instance NOT in library (in_library_check FALSE, in_library_coverage 0)) is “FALSE”.
RMATAEDLPLPPPPALEDL: under “library HD2, bait VASP_EVH1__P50552_1_114, validated benchmark motif instance, in_library_check TRUE, TRUE/FALSE = instance recovered in ProP-PD selection”, the motif_found entry is on record as “FALSE”.
For RMSQIKRLLSE, the motif_found entry (bait PTK2_Focal-AT__Q05397_891_1050, HD2 library, whether the validated benchmark motif instance was recovered in the ProP-PD selection (TRUE/FALSE)) was “FALSE”.
Take RPPDDAVFDIITDEELCQIQ: the motif_found entry under setting [4] was “FALSE”.
Regarding RRKWQKTGNAVRAIGRLSSM [MYLK], the motif_found entry under setting [3] is listed as “FALSE”.
With RRMPAANLIQAAWRLYSTD [KCNQ4 338-356], the motif_found entry under setting [1] was “FALSE”.
Take “RRRFLHLKKAAIVFQKQLRGQIARRVYRQLLAEK [MYO10 789-808]”: the motif_found entry under setting [1] is “FALSE”.
In the case of RRRWKLSFSIVSLCNHLTR [DAPK2], under setting [3], the motif_found entry is “FALSE”.
For RSEIGHSPPPAYTPMS, for the setting “bait NEDD4_WW_4 (P46934 890-928), HD2 library, benchmark motif instance recovered in the ProP-PD selection (TRUE/FALSE)”, the motif_found entry is listed as “TRUE”. In addition, under “bait NEDD4_WW_4 (P46934 890-928), HD2 library, confidence level (1-4) of best matching peptide”, the best_confidence came out at 2. For the setting “bait NEDD4_WW_4 (P46934 890-928), HD2 library, specificity score of best matching peptide”, this substance came in with a best_specificity of 1.
As for RVTENNLQTPNPTASEFIPKGGSTSRL, under setting [5], the motif_found result was “FALSE”.
With SAEPRPRTRSNPEGAEDRAVGA, the motif_found result under setting [2] was “FALSE”.
Under setting [6], SALSPNAKEFIFPNMQ showed a best_confidence of 3. Also, the best_specificity under setting [7] amounted to 1. In addition, the motif_found result under setting [5] is recorded as “TRUE”.
For SARILKEYNPFEEEDEEEE, under setting [8], the motif_found result is reported as “FALSE”.
As to SASYPPYQATGPPNTSYMPGMPGGI [TSG101], the motif_found result (bait CEP55_EABR__Q53EZ4_160_217, library HD2, benchmarking set of validated motif instances, TRUE = motif instance recovered in the ProP-PD selection) is “FALSE”.
On to SDLFPAPPQIPSRPVRIPPG [DNM2], for which, under setting [9], the motif_found entry is “FALSE”.
As to SDRTAAPGNPFRAKSEESE, the motif_found entry under setting [8] was “FALSE”.
Turning to SEEGDNESRSAGDGTDWEKEDQ, the motif_found entry under setting [2] was “FALSE”.
Where the note is “bait ANKRA2_Ank__Q9H9E1_142_313, library HD2 P8”, SETMSMPQLTVPASGS registered an HD2 confidence of 4.
Take SFGGGFADF [EPS15]: for the setting “bait AP2B1_adaptin__P63010_700_937, library HD2, benchmarking set of validated motif instances, TRUE = motif instance recovered in the ProP-PD selection”, the motif_found entry is “TRUE”.
In the case of “SFLSRRAARTIQTAFRQYRMNKNFERLRSSA [IQSEC2]”, the motif_found entry under setting [3] is “FALSE”.
Substance SFNPDAQVFVPIGSQD gave a best_confidence under setting [6] of 3. The substance also showed a best_specificity under setting [7] of 1. Besides, under setting [5], the motif_found result is “TRUE”.
For SGETQTTSPAIPWAAF, under “bait AP2B1_adaptin__P63010_700_937, confidence level (4 = High, 2-3 = Medium, 1 = Low)”, the HD confidence was 4. The same substance yielded an HD mean counts (bait AP2B1_adaptin__P63010_700_937, mean NGS counts over replicate selections) of 10.25. This substance registered an HD count proportions (bait AP2B1_adaptin__P63010_700_937, mean proportion of NGS counts) of 0.003472.
Take SGGSDEAPPKPSRPGYPSPR [PTK2]: under setting [9], the motif_found entry was “FALSE”.
SHLGTYGVFTNAAFDPSP----: the motif_found result under setting [10] is “FALSE”.
As for SIDAHTFDFETIPHPNIEQ, the motif_found result is, setting by setting: under setting [4], “FALSE”; under setting [11], “FALSE”.
SILEQTDMEAVEALVCMSSWGQRS: the motif_found result (bait SIN3A_PAH__Q96ST3_295_383, HD2 library, whether the validated benchmark motif instance was recovered in the ProP-PD selection (TRUE/FALSE)) is on record as “FALSE”.
Consider SKSSNASWPPEFQPGVPWKGIQNIDPES, for which the motif_found result under setting [5] is “FALSE”.
In the case of SKYITTIAGVMTLS, the motif_found result (library HD2, bait CALM1_EF-hand__P0DP23_2_149, motif instance NOT in library (in_library_check FALSE, in_library_coverage 0)) is recorded as “FALSE”.
Regarding “SLEQSERRRRLLELQKSKRLDYVNHARRLA,ERRRRLLELQKSKRLDYVNHARR,PRLSQYKSKYSSLEQSERRRRLLELQKSKRLDYVNHARR,EQSERRRRLLELQKSKRLDYVNHARR (UniProt O95149 42-64, looked up, fragment) [SNUPN 42-64]”, the motif_found entry (HD2 library, bait KPNB1_Heat_1_Q14974_1_485, benchmark motif instance, in_library_check FALSE, in_library_coverage 0) is listed as “FALSE”.
Consider SLMTDEPGLDNPAYVSSAEDGQ, for which the motif_found entry under setting [10] was “FALSE”.
Take SLWTALSNFSMPSFPG: for the setting “bait CALM1 EF-hand (P0DP23, 2-149), HD2 library selection with 1mM_CaCl, confidence level (4 = High, 2 or 3 = Medium, 1 = Low)”, the HD2-1mM_CaCl confidence is reported as 4. The same substance registered an HD2 confidence (bait CALM1 EF-hand (P0DP23, 2-149), HD2 library selection, confidence level (4 = High, 2 or 3 = Medium, 1 = Low)) of 4.
With SNGSSINWPPEFHPGVPWKGLQNIDPEN, the motif_found entry under setting [5] is given as “FALSE”.
Consider SNPFMTGAPTGQFPTG, for which, under “library HD2, bait EPS15_EH__P42566_121_215, best matching peptide”, the best_specificity was 1. Besides, where the note is “library HD2, bait EPS15_EH__P42566_121_215, confidence level of best matching peptide (4 High, 2-3 Medium, 1 Low)”, the best_confidence is 3. Besides, under setting [8], the motif_found result is “TRUE”.
As to SNTNRFQVSVINENHE, the HD2_cytoplasm confidence (bait OXSR1___O95747_434_527, HD2 P8 cytoplasm sublibrary, confidence level (4 = High, 2-3 = Medium, 1 = Low)) amounted to 4.
For SPALTAPPPAYATLGPRP, the motif_found entry is recorded as “FALSE” (bait NEDD4_WW_4_P46934_890_928, HD2 library, whether the validated benchmark motif instance was recovered in the ProP-PD selection (TRUE/FALSE)) and “FALSE” (library HD2, bait YAP1_WW_1_P46937_169_207, validated benchmark motif instance, in_library_check TRUE, TRUE/FALSE = instance recovered in ProP-PD selection).
Turning to SPANSFHFKEAWKHAIQKAKHMPDPWA [EEF2K], under setting [3], the motif_found result is on record as “FALSE”.
Consider SPFLPDLNFFAADSCL, for which, where the note is “bait ANKRA2_Ank__Q9H9E1_142_313, HD2 P8 selection, confidence level -4 to 4: 4 = High, 3 or 2 = Medium, 1 = Low, 0 = Filtered/Noise”, the HD2 confidence was 2.
As for SPSLPNITLGLPATGP, the HD confidence (bait ANKRA2_Ank__Q9H9E1_142_313, confidence level (4 = High, 2-3 = Medium, 1 = Low)) amounted to 4. Under “bait ANKRA2_Ank__Q9H9E1_142_313, mean NGS counts over replicate selections”, this substance yielded an HD mean counts of 701.75. Where the note is “bait ANKRA2_Ank__Q9H9E1_142_313, mean proportion of NGS counts”, this substance returned an HD count proportions of 0.06192.
On to SQKGNISETIVIDDEEDIETNGGA, for which, where the note is “HD2 library, bait SUMO1_SUMO__P63165_1_101, known motif instance of the benchmarking set found (TRUE) or not found (FALSE) among selected peptides”, the motif_found result was “FALSE”.
On to SQPAGISTNPFMTGPSSSP, for which the motif_found result under setting [8] was “FALSE”.
In the case of SQPVMRPPNPFGPVSGAQI, under setting [8], the motif_found result was “FALSE”.
For the substance SQRIQTNNNPFQVPIEEQR [RELA 138-142], where the note is “HD2 library, bait EPS15_EH__P42566_121_215, benchmark motif instance, in_library_check FALSE, in_library_coverage 0”, the motif_found result is given as “FALSE”.
For SQSSASSEDYIIILPECFDT, the motif_found result is, setting by setting: under setting [4], “FALSE”; under setting [11], “FALSE”.
